“Also recorded” adds a separate entry of the source. Read-outs that look alike come from different tables or passages of the source.
Columns and labels:
[1] = tested on: prekallikrein activating factor (PK activation); experiment: Inhibition profile of PK activation (prekallikrein activation assay, kallikrein substrate S-2302, O.D. 405 nm); format: biochemical, human
From the text: In embodiments of the invention the reaction time may be fixed or “set.” The reaction time can be “set” by stopping the production of kallikrein, for example, by adding a prekallikrein activation inhibitor to the system of the present invention after a desired reaction time. Also, by adding a coloring or fluorescent synthetic substrate to the reaction system from the start or beginning, the produced amount of kallikrein (coloring or fluorescent intensity) may be observed at different lapses of time. […] When the reaction is stopped, the produced kallikrein can be quantitatively determined using an enzymatic activity of kallikrein as a target, for example, by applying a substrate to kallikrein.
When the reaction is stopped, the produced plasma kallikrein can be determined using an enzymatic activity of the plasma kallikrein as a target by utilizing a substrate to the plasma kallikrein.
(§1) Assays were performed in HEPES buffered saline (HBS) (10 mM Hepes, 137 mM NaCl, 4 mM KCl, 11 mM D-glucose, and 0.5 mg/ml RIA grade bovine serum albumin, pH 7.4), with a kallikrein specific substrate (0.6 mM S-2302). For assays using the cell-free system, 96 well disposable polystyrene microtiter plates (Dynatech Laboratories, Chantilly, Va.) were used. These microtiter plates were pretreated with 1% polyethylene glycol (Aquacide III, Calbiochem, Calif.) in HBS for two hours to prevent adsorption of proteins to polystyrene. The absorbance (O.D. at 405 nm or optical density at 405 nm) was monitored at room temperature on a Molecular Devices (Sunnyvale, Calif.) THERMOmax microplate reader. Just prior to the assay all the proteins were treated with 2.0 mM (4-amidinophenyl)methanesulfonyl fluoride (APMSF) for 15 minutes at pH 5.5, after which they were diluted 1:100 with HBS and incubated for 45 minutes to allow for the decomposition of any unreacted APMSF at the neutral pH. The proteins were treated with APMSF before use and were inactivated for the sake of safety.

[2] = tested on: HSP 90-dependent prekallikrein activation; experiment: HSP 90-dependent prekallikrein activation (HSP 90, HK, zinc, PK, S-2302); format: biochemical, human; details: purified HSP 90 activator, HK and zinc present
Description: as §1
HSP 90 was confirmed as a prekallikrein activator, which was functionally indistinguishable from the cytosolic extract (FIG. 2). A HUVEC activator system was functionally effective as well (FIG. 1). […] The incubation mixture used is as follows: […]

[3] = tested on: activation of prekallikrein in the presence of phosphate and zinc ions; experiment: Prekallikrein activation by phosphate ion (PBS, zinc, HK, PK, S-2302); format: biochemical; details: phosphate ion activator, no FXIIa, HUVEC or HSP 90
Description: as §1, with “safety. […]” for “safety.”

Molecule: Aprotinin
- inhibition of the prekallikrein activator in this system (in words) [1]: good inhibitors
- % inhibition of PK activation ([1]; inhibitor concentration 100 μM): 96.4%

Molecule: O=C(O)CN(CCN(CC(=O)O)CC(=O)O)CC(=O)O [EDTA]
- % inhibition of PK activation [1]: 85.4%
- inhibition of the prekallikrein activator in this system (in words) [1]: good inhibitors

Molecule: NC(=O)CI [Iodoacetamide]
- % inhibition of PK activation ([1]; inhibitor concentration 10 mM): 7%

Molecule: C[C@H](CS)C(=O)N1CCC[C@H]1C(=O)O [Captopril]
- inhibition of the prekallikrein activator in this system (in words) [1]: good inhibitors
- % inhibition of PK activation ([1]; inhibitor concentration 10 mM): 97.9%

Molecule: O[C@@H](CS)[C@@H](O)CS [DTT]
- % inhibition of PK activation ([1]; inhibitor concentration 10 mM): 69.1%

Molecule: N[C@@H](CS)C(=O)O [Cysteine]
- % inhibition of PK activation ([1]; inhibitor concentration 10 mM): 59.6%

Molecule: OCCS [Mercaptoethanol]
- inhibition of the prekallikrein activator in this system (in words) [1]: good inhibitors
- % inhibition of PK activation ([1]; inhibitor concentration 5%): 85.5%

Molecule: Corn Trypsin Inhibitor
- % inhibition of PK activation ([1]; inhibitor concentration 10 μM): 94.3%
- inhibition of the prekallikrein activator in this system (in words) ([1]; listed as CTI): good inhibitors; also recorded: could be inhibited by CTI
- inhibition of HSP 90-dependent prekallikrein activation (in words) [2]: inhibited by CTI

Molecule: CC(C)Cc1ccc(C(C)C(=O)O)cc1 (stereo not shown) [Ibuprofen]
- inhibition of HSP 90-dependent prekallikrein activation (in words) [2]: inhibited by Ibuprofen dose-dependently
- inhibition of prekallikrein activation in the presence of phosphate and zinc ions (in words) [3]: inhibited by Ibuprofen dose-dependently

Molecule: Cystatin
- % inhibition of PK activation ([1]; inhibitor concentration 10 μg/ml): 4.5%

Molecule: N[C@@H](CCC(=O)N[C@@H](CS)C(=O)NCC(=O)O)C(=O)O [Glutathione]
- % inhibition of PK activation ([1]; inhibitor concentration 100 μM): 18.6%

Molecule: [Cl][Hg][Cl] [HgCl2]
- inhibition of the prekallikrein activator in this system (in words) [1]: good inhibitors
- % inhibition of PK activation ([1]; inhibitor concentration 1 mM): 98%

B1: SBTI: soybean trypsin inhibitor (SBTI) (protein, UniProt P01070 25-205, looked up)
Trypsin inhibitor A: DFVLDNEGNPLENGGTYYILSDITAFGGIRAAPTGNERCPLTVVQSRNELDKGIGTIISSPYRIRFIAEGHPLSLKFDSFAVIMLCVGIPTEWSVVEDLPEGPAVKIGENKDAMDGWFRLERVSDDEFNNYKLVFCPQQAEDDKCGDIGISIDHDDGTRRLVVSKNKPLVVQFQKLDKESL
- inhibition of the prekallikrein activator in this system (in words) [1]: good inhibitors
- % inhibition of PK activation ([1]; inhibitor concentration 50 μg/ml): 98.6%

From patent US6913900B2, “Plasma prekallikrein activation and kallikrein production assay” (Nippon Zoki Pharmaceutical Co., Ltd., priority 2001, dated 2005)
